The values below come from PMC9922277, “Repositioning Lomitapide to block ZDHHC5-dependant palmitoylation on SSTR5 leads to anti-proliferation effect in preclinical pancreatic cancer models” (Cell Death Discovery, 2023).

Ends that are not written are not given here.

The target of one assay is T1, ZDHHC5 (Homo sapiens, UniProt Q9C0B5).
T1 construct: protein fragment 60-148aa expressed using Yeast
Put plainly: microscale thermophoresis (MST) with labeled ZDHHC5 fragment. The class given is binding. (Microscale thermophoresis detects binding through changes in fluorescence in a small temperature gradient.)

Assay [1] addresses T2, ZDHHC5 protein fragment (60-148aa), ZDHHC5's substrate binding domain (UniProt Q9C0B5 60-148, RED-NHS 2nd Generation dye label where it was the labeled partner (assay without Lomitapide); unlabeled in the assay with Lomitapide).
T2 construct: also called ZDHHC5 substrate domain; source: expressed using Yeast; labeled and purified with the labeling kit
Put plainly: MST; 20 nM labeled ZDHHC5 mixed with unlabeled SSTR5 in 16 serial concentrations (maximum 200 nM), RT, 1.05*PBS; Monolith NT.115, LED 20%, medium MST power. The following applies: both partners purified.

In assay [2] the target is T2, ZDHHC5 protein fragment (60-148aa), …. The experiment in a line: MST; in the presence of 25 uM Lomitapide: 20 nM labeled SSTR5 and 25 uM Lomitapide mixed with unlabeled ZDHHC5 in 16 serial concentrations (maximum 200 nM), RT, 1.05*PBS. As to conditions: both partners purified.

T2 sequence (Q9C0B5 60-148): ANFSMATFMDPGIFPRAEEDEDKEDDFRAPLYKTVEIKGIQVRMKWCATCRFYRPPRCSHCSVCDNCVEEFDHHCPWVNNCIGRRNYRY
T1 sequence (Q9C0B5 60-148): as above

What is called Kd is the equilibrium constant for the complex coming apart. `O=C(NC1CCN(CCCCC2(C(=O)NCC(F)(F)F)c3ccccc3-c3ccccc32)CC1)c1ccccc1-c1ccc(C(F)(F)F)cc1` [Lomitapide] gave a Kd at ZDHHC5 of 509 nM. On ZDHHC5, `CCCCCCCCCCCCCCCC(=O)O` [palmitic acid] registered a dissociation constant Kd of 88 nM.

B1: SSTR5 protein fragment (cytoplasmic tail 307-364aa) (domain or fragment, UniProt P35346 307-364, looked up)
chain: LSDNFRQSFQKVLCLRKGSGAKDADATEPRPDRIRQQQEATPPAHRAAANGLMQTSKL
modifications: also: RED-NHS dye label in the labeled-partner assay, site not given here
notes: also called SSTR5 (307-362 aa); SSTR5 cytoplasmic tail
B1: the Kd in assay [1] worked out at 2.06 nM; in assay [2] it was 22.5 nM.
